Assay results from article PMC10803289, “Transport and inhibition mechanism of the human SGLT2–MAP17 glucose transporter” (Nature Structural & Molecular Biology, 2023).
Where “and” joins values, the source holds several entries; their conditions need not be identical. Equal values may be shown once.

Experiments:
[1] = target: T1, hSGLT2 S74A (Homo sapiens, UniProt P31639, S74A); format: binding; conditions: S74A
T1 construct: expressed in transfected cells; host or cells: Expi293 cells, crude membrane fraction
Excerpt: hSGLT2 complementary DNA and human MAP17 cDNA were synthesized and codon-optimized for expression in human cell lines. Both cDNAs were cloned into the pcDNA3.4 vector. The hSGLT2 sequence was fused with an N-terminal signal sequence from human trypsinogen 1, a His10 tag, and sfGFP, followed by a human rhinovirus 3C protease (HRV3C protease) recognition site. Point mutations were introduced into this construct using site-directed mutagenesis. These plasmids were utilized for all experimental procedures conducted in this study.
To examine the inhibition of binding to the crude membrane, mammalian Expi293 cells were co-transfected with the hMAP17 and hSGLT2 plasmids, as described. The cells were collected and disrupted by sonication in a hypotonic buffer (50 mM HEPES–NaOH (pH 7.5), 10 mM KCl and protease inhibitor cocktail) or Na^+-free hypotonic buffer (50 mM Tris–HCl (pH 7.5), 10 mM KCl and protease inhibitor cocktail). The cell debris were removed by centrifugation (2,000g, 5 min, 4 °C). The membrane fraction was collected by ultracentrifugation (112,000g, 30 min, 4 °C) and stored at −80 °C before use. […] The extract solution from the filter plate was diluted with water containing candesartan as an internal standard, and the SGLT2 inhibitor concentration was quantified via LC–MS/MS.
Nonspecific binding was measured using the crude membrane of nontransfected Expi293 cells. Specific binding was calculated by subtracting nonspecific binding from the binding of hSGLT2-expressing cells. Specific binding was normalized to hSGLT2 protein expression levels, measured via FSEC. The equilibrium dissociation constant (Kd) and maximum number of binding sites (Bmax) were calculated via nonlinear regression in GraphPad Prism 8.4.3. […]
The concentrations of the extract solution from the filter plate and of the cell lysate were quantified using a tandem mass spectrometry QTRAP6500 System (SCIEX) coupled with an ACQUITY UPLC system (Waters) using the internal standard method. […]

[2] = target: T2, WT hSGLT2 (Homo sapiens, UniProt P31639); assay: α-MG uptake in hSGLT2-transfected HEK293 cells, WT; format: cell-based
T2 construct: expressed in transfected cells; host or cells: HEK293 cells (ECACC 85120602)
T2 sequence (P31639 1-672): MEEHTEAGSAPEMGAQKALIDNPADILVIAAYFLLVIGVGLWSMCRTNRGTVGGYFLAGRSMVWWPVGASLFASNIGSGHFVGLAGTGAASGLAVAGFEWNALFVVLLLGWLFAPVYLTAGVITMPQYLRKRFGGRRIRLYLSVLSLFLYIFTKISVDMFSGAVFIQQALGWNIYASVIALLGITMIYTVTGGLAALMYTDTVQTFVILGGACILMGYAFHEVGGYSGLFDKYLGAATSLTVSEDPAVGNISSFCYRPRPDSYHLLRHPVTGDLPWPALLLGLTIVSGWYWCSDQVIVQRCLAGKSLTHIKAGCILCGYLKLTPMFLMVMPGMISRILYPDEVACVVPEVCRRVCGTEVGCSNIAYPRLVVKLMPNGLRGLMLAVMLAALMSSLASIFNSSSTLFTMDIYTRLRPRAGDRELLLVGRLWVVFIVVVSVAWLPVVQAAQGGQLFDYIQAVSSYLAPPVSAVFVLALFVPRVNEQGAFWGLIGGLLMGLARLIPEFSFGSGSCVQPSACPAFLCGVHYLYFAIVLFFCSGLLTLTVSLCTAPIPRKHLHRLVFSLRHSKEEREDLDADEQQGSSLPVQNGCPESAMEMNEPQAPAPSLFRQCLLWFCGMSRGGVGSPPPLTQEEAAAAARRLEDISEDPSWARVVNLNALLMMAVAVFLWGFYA
T2 sequence (Q13113 1-114 partner): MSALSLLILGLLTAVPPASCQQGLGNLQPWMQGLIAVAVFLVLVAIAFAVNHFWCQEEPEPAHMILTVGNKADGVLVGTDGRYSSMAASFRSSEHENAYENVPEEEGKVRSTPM
Description: HEK293 cells (ECACC 85120602) were maintained in Dulbecco’s modified Eagle medium (Gibco) supplemented with 10% fetal bovine serum (Thermo Scientific), 2 mM L-glutamine, 100 U ml^−1 benzylpenicillin and 100 µg ml^−1 streptomycin at 37 °C in a humidified atmosphere (5% CO2 in air). HEK293 cells were seeded at 1.0 × 10^5 cells per well in poly-L-lysine coated 24-well plates. The cells in each well were transiently transfected with 0.25 µg hMAP17 plasmid and 0.50 µg hSGLT2 plasmid using Lipofectamine 2000 (Life Technologies) and cultured for 48 h. […] After preincubation, uptake was initiated by replacing the preincubation buffer with extracellular fluid buffer containing 500 μM α-MG in the absence or presence of inhibitors. Uptake was completed by removing the uptake buffer and washing with ice-cold buffer three times, followed by solubilization in 1 N NaOH at room temperature.
Cell lysates were deproteinized by adding acetonitrile containing candesartan as the internal standard. The α-MG concentration was quantified via liquid chromatography–tandem mass spectrometry (LC–MS/MS) using the internal standard method.
Cellular protein content was determined using a bicinchoninic acid protein assay kit (Thermo Fisher Scientific). The uptake of α-MG was expressed as the ratio of concentration in the cells (in pmol per mg protein) to concentration in the medium (in pmol μl^−1); this is known as the cell-to-medium ratio (in μl per mg protein).
In the inhibition study, the cell-to-medium ratio of cells transfected with the empty vector was used as the background. The specific α-MG uptake was calculated by subtracting this background from the total cell-to-medium ratio and normalized to the uptake achieved without the inhibitor. IC50 was calculated via nonlinear regression using GraphPad Prism 8.4.3.
The concentrations of the extract solution from the filter plate and of the cell lysate were quantified using a tandem mass spectrometry QTRAP6500 System (SCIEX) coupled with an ACQUITY UPLC system (Waters) using the internal standard method. Mobile phases A and B used 10 mM of ammonium bicarbonate and acetonitrile, respectively.

T1 sequence (P31639 whole entry S74A, one chain of several): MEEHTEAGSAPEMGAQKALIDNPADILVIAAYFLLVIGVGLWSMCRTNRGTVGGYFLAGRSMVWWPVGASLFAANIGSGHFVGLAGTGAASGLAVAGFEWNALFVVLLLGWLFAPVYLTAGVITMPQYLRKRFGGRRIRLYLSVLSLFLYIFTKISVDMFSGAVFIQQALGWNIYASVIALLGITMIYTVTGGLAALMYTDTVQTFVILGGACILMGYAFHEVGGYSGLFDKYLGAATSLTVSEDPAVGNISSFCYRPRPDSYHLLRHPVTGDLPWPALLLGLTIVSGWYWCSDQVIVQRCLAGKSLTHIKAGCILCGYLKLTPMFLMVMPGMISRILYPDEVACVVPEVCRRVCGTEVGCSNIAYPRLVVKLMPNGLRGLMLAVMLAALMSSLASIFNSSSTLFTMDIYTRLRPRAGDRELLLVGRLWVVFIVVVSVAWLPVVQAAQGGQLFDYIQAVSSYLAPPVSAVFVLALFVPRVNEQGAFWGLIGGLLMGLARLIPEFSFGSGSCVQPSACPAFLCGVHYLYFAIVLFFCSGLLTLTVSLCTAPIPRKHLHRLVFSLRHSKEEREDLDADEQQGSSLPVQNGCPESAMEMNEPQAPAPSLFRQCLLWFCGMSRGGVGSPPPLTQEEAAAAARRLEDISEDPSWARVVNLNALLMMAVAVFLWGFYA

Cc1ccc([C@@H]2O[C@H](CO)[C@@H](O)[C@H](O)[C@H]2O)cc1Cc1ccc(-c2ccc(F)cc2)s1 [Canagliflozin]
Canagliflozin binding (% of WT) ([1]; 30 nM canagliflozin, replicates): 75.2559 % of WT and 78.5839 % of WT and 93.2268 % of WT

O=C(CCc1ccc(O)cc1)c1c(O)cc(O)cc1O[C@@H]1O[C@H](CO)[C@@H](O)[C@H](O)[C@H]1O [Phlorizin]
Bmax1 ([1]; phlorizin, mean ± SEM n=3): 1.16 ± 0.07 pmol/mg-protein
remaining activity at 0.0003 µM ([2]; HEK293, Phlorizin 0.3 nM, WT, read-out: α-MG uptake (% of control)): 103%
remaining activity at 0.001 µM ([2]; HEK293, Phlorizin 1 nM, WT, read-out: α-MG uptake (% of control)): 101%
remaining activity at 0.01 µM ([2]; HEK293, Phlorizin 10 nM, WT, read-out: α-MG uptake (% of control)): 81.9%
remaining activity at 0.03 µM ([2]; HEK293, Phlorizin 30 nM, WT, read-out: α-MG uptake (% of control)): 53.8%
remaining activity at 0.1 µM ([2]; HEK293, Phlorizin 100 nM, WT, read-out: α-MG uptake (% of control)): 36.9%
remaining activity at 0.3 µM ([2]; HEK293, Phlorizin 300 nM, WT, read-out: α-MG uptake (% of control)): 18.1%
α-MG uptake (% of control) ([2]; Phlorizin 0.3 nM, WT): 107.5 % of control and 105.5 % of control
α-MG uptake (% of control) ([2]; Phlorizin 1 nM, WT): 114.0 % of control and 107.4 % of control
α-MG uptake (% of control) ([2]; Phlorizin 3 nM, WT): 83.9 % of control and 115.8 % of control and 121.5 % of control
α-MG uptake (% of control) ([2]; Phlorizin 10 nM, WT): 71.6 % of control and 84.5 % of control
α-MG uptake (% of control) ([2]; Phlorizin 30 nM, WT): 70.4 % of control and 72.9 % of control
α-MG uptake (% of control) ([2]; Phlorizin 100 nM, WT): 38.1 % of control and 34.4 % of control
α-MG uptake (% of control) ([2]; Phlorizin 300 nM, WT): 15.6 % of control and 11.8 % of control

CO[C@H]1O[C@H](CO)[C@@H](O)[C@H](O)[C@H]1O [α-MG, α-methyl-D-glucopyranoside]
α-MG uptake ([2]; Control (no inhibitor), hSGLT2 cells): 23.4464 μL/mg-protein and 18.7820 μL/mg-protein and 14.3913 μL/mg-protein and 26.3540 μL/mg-protein
α-MG uptake ([2]; Fig. 3h, WT): 101.43 μL/mg-protein and 101.01 μL/mg-protein and 97.56 μL/mg-protein
α-MG uptake ([2]; time course, 500 μM α-MG, 15 min, hSGLT2): 4.1190 μL/mg-protein and 4.1163 μL/mg-protein and 6.4519 μL/mg-protein
α-MG uptake ([2]; time course, 500 μM α-MG, 30 min, hSGLT2): 12.1536 μL/mg-protein and 10.6771 μL/mg-protein and 14.5344 μL/mg-protein
